Measurements from US20230241037A1, “CROSS-LINKED MEDICATION FOR TREATMENT OF CORONAVIRAL INFECTION AND METHOD OF TREATMENT” (1GLOBE HEALTH INSTITUTE, NANJING, priority 2020, published 2023).
pEC50: −log10 of the molar value.

Legend:
SARS-CoV-2 = test: microbe, parasite or virus in culture; assay type: cell-based; settings: for pEC50: Severe acute respiratory syndrome coronavirus 2, Vero C1008, Vero E6 cells, MOI 0.05, 1 hour pretreatment, viral RNA in supernatant 48 hours post infection; for SI (selectivity index): from the CC50 and EC50 values in Vero E6 cells
[1] = Standard CCK-8 cytotoxicity assay; assay type: cell-based; settings: African green monkey, Vero E6 cells, 48 hours incubation
Experimental: Vero E6 African green monkey kidney cell line was obtained from American Type Culture Collection (ATCC, No. 1586) and maintained in MEM medium (MEM; Gibco Invitrogen) supplemented with 10% fetal bovine serum (FBS; Gibco Invitrogen) at 37° C. in an atmosphere of 5% CO2.
Standard CCK-8 assays were performed to measure the cytotoxic effect of the drug candidates on Vero E6 cells, which was performed in accordance with the manufacturer's instructions (Beyotime, China).

Structure (SMILES)	pEC50 (SARS-CoV-2)	SI (selectivity index) (SARS-CoV-2)	CC50 at 48 h [1]
CC(=O)Oc1ccccc1C(=O)Nc1ncc([N+](=O)[O-])s1 [NTZ, o-[N-(5-nitro-1,3-thiazol-2-yl)carbamoyl]phenol acetate)]	5.68	17.5	36.8 µM
NC(=O)c1ncn([C@@H]2O[C@H](CO)[C@@H](O)[C@H]2O)n1 [RBV, 1-[(2R, 3R, 4S, 5R)-3,4-dihydroxy-5-(hydroxymethyl)oxolan-2-yl]-1H-1,2,4-triazole-3-carboxamide]	3.96	>3.7	> 400 µM
